These results are taken from the NIST ThermoML archive (doi:10.1021/acs.jced.7b00181).

The structures appear in SMILES notation. ± gives the expanded uncertainty stated by the source.

The conditions of this data set: Liquid, Concentric cylinders viscometry.

One may read the viscosity as the internal friction of a fluid under shear. In the case of `CCCCCCCCCCCCCC[P+](CCCCCC)(CCCCCC)CCCCCC.FC(F)(F)C(F)(F)[P-](F)(F)(F)(C(F)(F)C(F)(F)F)C(F)(F)C(F)(F)F`, the viscosity (298.15 K, 10000 kPa) turned out to be 413 ± 32 mPa·s; the viscosity (298.15 K, 50000 kPa) was found to be 913 ± 75 mPa·s; the viscosity (298.15 K, 75000 kPa) was 1417 ± 120 mPa·s; the viscosity (313.15 K, 10000 kPa) came out at 189 ± 15 mPa·s; the viscosity (313.15 K, 50000 kPa) turned out to be 401 ± 33 mPa·s; the viscosity (313.15 K, 75000 kPa) was determined as 615 ± 52 mPa·s. Besides, the viscosity reads like this: (323.15 K, 10000 kPa) 114 ± 9 mPa·s; (323.15 K, 50000 kPa) 223 ± 17 mPa·s; (323.15 K, 75000 kPa) 364 ± 29 mPa·s; (333.15 K, 10000 kPa) 78.1 ± 5.7 mPa·s; (333.15 K, 50000 kPa) 159 ± 12 mPa·s; (333.15 K, 75000 kPa) 232 ± 18 mPa·s. Also, the viscosity reads like this: (343.15 K, 10000 kPa) 53.5 ± 3.9 mPa·s; (343.15 K, 50000 kPa) 112 ± 8 mPa·s; (343.15 K, 75000 kPa) 162 ± 12 mPa·s; (353.15 K, 10000 kPa) 37.9 ± 2.8 mPa·s; (353.15 K, 50000 kPa) 76.3 ± 5.6 mPa·s; (353.15 K, 75000 kPa) 109 ± 8 mPa·s.
As for `CCCCCCOS(=O)(=O)[O-].CC[n+]1ccn(C)c1` [3-ethyl-1-methyl-1H-imidazolium hexyl sulfate], the viscosity (298.15 K, 10000 kPa) turned out to be 354 ± 27 mPa·s; the viscosity (298.15 K, 50000 kPa) came out at 571 ± 45 mPa·s; the viscosity (298.15 K, 75000 kPa) stood at 737 ± 59 mPa·s; the viscosity (313.15 K, 10000 kPa) was determined as 154 ± 12 mPa·s; the viscosity (313.15 K, 50000 kPa) stood at 238 ± 19 mPa·s; the viscosity (313.15 K, 75000 kPa) turned out to be 304 ± 25 mPa·s. Besides, the viscosity was 94 ± 7 mPa·s (323.15 K, 10000 kPa); 142 ± 11 mPa·s (323.15 K, 50000 kPa); 186 ± 14 mPa·s (323.15 K, 75000 kPa); 63.8 ± 4.6 mPa·s (333.15 K, 10000 kPa); 94.8 ± 6.9 mPa·s (333.15 K, 50000 kPa); 120 ± 9 mPa·s (333.15 K, 75000 kPa). Also, the viscosity is 44.5 ± 3.2 mPa·s (343.15 K, 10000 kPa); 65.9 ± 4.8 mPa·s (343.15 K, 50000 kPa); 82.1 ± 6 mPa·s (343.15 K, 75000 kPa); 31.4 ± 2.3 mPa·s (353.15 K, 10000 kPa); 46 ± 3.4 mPa·s (353.15 K, 50000 kPa); 56.9 ± 4.2 mPa·s (353.15 K, 75000 kPa).
